In US20080207722A1, “Glepp-1 Inhibitors in the Treatment of Autoimmune and/or Inflammatory Disorders” (LABORATORIES SERONO SA, priority 2005, published 2008):

Tests used:
[1] = target: T1, catalytic core of a human recombinant Glepp-1 (Homo sapiens, UniProt Q16827); test: Glepp-1 PTP enzyme assay (DiFMUP dephosphorylation); assay type: biochemical; settings: Glepp-1, DiFMUP substrate, 30 minutes at room temperature; read-out: Inhibition (IC50)
T1 construct: using the catalytic core of a human recombinant Glepp-1 as the enzyme; made in house
T1 sequence (Q16827 938-1195 limits assumed): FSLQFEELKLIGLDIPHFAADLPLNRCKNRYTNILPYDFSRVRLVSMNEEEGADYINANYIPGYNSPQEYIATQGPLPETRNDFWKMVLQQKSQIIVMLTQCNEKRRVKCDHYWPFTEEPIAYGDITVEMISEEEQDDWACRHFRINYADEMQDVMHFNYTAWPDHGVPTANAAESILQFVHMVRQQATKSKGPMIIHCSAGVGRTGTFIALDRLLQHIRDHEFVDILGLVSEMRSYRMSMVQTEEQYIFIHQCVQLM
Text: The PTP Enzyme Assay aims at determining the extent of inhibition of Glepp-1 in the presence of a test compound. The inhibition is illustrated by IC50 values which denote the concentration of test compound necessary to achieve an inhibition of 50% of Glepp-1 using the following concentration of the Glepp-1 substrate DiFMUP:
The DiFMUP assay allows to follow the dephosphorylation of DiFMUP (6,8-DiFluoro-4-MethylUmbelliferyl Phosphate)—which is the Glepp-1 substrate—mediated by Glepp-1 into its stable hydrolysis product, i.e. DiFMU (6,8-difluoro-7-hydroxy coumarin). Due to its rather low pKa and its high quantum yield, DiFMU allows to measure both acidic and alkaline phosphatase activities with a great sensitivity.
Assays were performed in a 96 well plate format, using the catalytic core of a human recombinant Glepp-1 as the enzyme and 6,8-DiFluoro-4-MethylUmbelliferyl Phosphate (DiFMUP, Molecular Probes, D-6567) as a substrate. Compounds to be tested were dissolved in 100% DMSO at a concentration of 2 mM. Subsequent dilutions of the test compounds (to yield a concentration of 100, 30, 10, 3, 1, 0.3, 0.1, 0.03, 0.01, 0.001 μM) were performed in 60% DMSO manually. 8 μl of diluted compound or vehicle (60% DMSO=control) was distributed to a black Costar 96 well plate. 42 μl of human recombinant Glepp-1 enzyme diluted in assay buffer (20 mM Tris HCl pH 7.5, 0.01% IGEPAL CA-630, 0.1 mM ethylenediaminetetracetic acid, 1 mM DL-Dithiothreitol) can be added to the dilutions of compound or vehicle (distributed to a black Costar 96 well plate), followed by 50 μl of DiFMUP diluted in the assay buffer. The reaction ran for 30 minutes at room temperature before reading the fluorescence intensity (integral or intensity) on a Perkin-Elmer Victor 2 spectrofluorimeter (excitation of 6,8-difluoro-7-hydroxy coumarin is at 355 nm, the emission at 460 nm, for 0.1 s). The percentage of inhibition is determined by measuring the relative fluorescence ion absence of a test compound (PTP inhibitor), i.e. with the solvent alone (5% DMSO). The IC50 values for inhibition were determined in triplicates.

THP-1 cells = test: In vitro chemotaxis, MCP-1-induced, THP1 cells (transwell); assay type: cell-based; settings: Homo sapiens, MCP-1/CCL2 in lower chamber, 3 hours, read-out: block chemotaxis, EC50
Text: The compounds of Formula (I), (II), (III), (IV), (V), (VI) and (VII), may be subjected to the following assays: • (1) Glepp-1 binding assay (in vitro) • (2) In vitro assay(s): Cell functional effect. Effect on MCP-1-induced chemotaxis on THP-1 cells • (3) Lymphocyte recruitment by thioglycollate (in vivo model for inflammation) • (4) Collagen induced arthritis (CIA) in mice (in vivo model for inflammation) • (5) Contact hypersensitivity (CHS is a T cell-mediated model of skin inflammation) • (6) EAE (in vivo model for MS) • (7) Ulcerative colitis
The assay was performed as follows: After starvation of THP1 cells in serum free medium for 3 hours, 10^7 cells/ml in medium containing 0.5% BSA, and inhibitors, when indicated. 100 μl of cells were applied to the top chamber (5 μm pore size transwell plates, COSTAR, New York) and 6001 of medium containing MCP-1/CCL2, in the absence or presence of test compounds, were added to the lower chamber. After incubation at 37° C. and 5% of CO2 for 3 hours, cells that passed through the membrane were collected and counted in a Beckman Coulter® AcT 5Diff™.

Balb/c mice = test: Dextran Sodium Sulfate-induced ulcerative colitis in mice; assay type: in vivo; settings: for body weight loss: po
Method: Ulcerative colitis (UC) was induced in female mice (Balb/c, 20-22 g, Elevage Janvier) by Dextran Sodium Sulfate (DSS 4%) administered in drinking water. The mice had free access to DSS during 7 days. Body weight was determined daily. The severity of the UC was assessed by a clinical score (range 0 to 4) estimating the constituency of the stool (0=firm, 1=loose, 2=diarrhea) and the presence of blood (0=no blood, 1=occult blood, 2=gross rectal bleeding). Seven days after the induction of the disease, the animals were sacrificed. The length and the weight of the colon were determined and the ratio Weight/Length/100 g body weight was calculated. The spleen weight was also determined.
Compound of the invention (10, 30 & 100 mg/kg, po) was suspended in 0.5% methocel/0.25% tween 20 and was administered twice daily at days 3, 4, 5 and 6 after the induction of the UC. Sulfasalazine (200 mg/kg, po) was used as reference compound.

[2] = 10 mg/kg po twice daily days 3-6, versus vehicle treated group
[3] = 30 mg/kg po twice daily days 3-6, versus vehicle treated group
[4] = 100 mg/kg po twice daily days 3-6, versus vehicle treated group

CCCCCCc1ccc(C#Cc2ccc(CN(Cc3ccc(C(F)(F)F)cc3)C(=O)C(=O)O)cc2)cc1 [{{4-[(4-hexylphenyl)ethynyl]benzyl}[4-(trifluoromethyl)benzyl]amino}-(oxo)acetic acid] was tested. Which IC50 [1] did it give?
Its IC50 is less than 1000 nM.

What about the EC50 (THP-1 cells) of the same compound?
The EC50 was 1000 to 15000 nM.

O=C1NN(c2ccc(I)cc2)C(=O)/C1=C/c1ccc(Br)o1 [(4E)-4-[(5-bromo-2-furyl)methylene]-1-(4-iodophenyl)pyrazolidine-3,5-dione] was tested. Which IC50 [1] did it give?
Its IC50 is less than 1000 nM.

Which IC50 [1] does the source give for CCCCCCCCC#Cc1ccc(CN(C(=O)/C=C/c2cccc(C(F)(F)F)c2)c2ccc(O)c(C(=O)O)c2)cc1 [5-((4-dec-1-ynylbenzyl){(2E)-3-[3-(trifluoromethyl)phenyl]prop-2-enoyl}amino)-2-hydroxybenzoic acid] here?
Its IC50 is less than 1000 nM.

For CCCCCCCCNC(=O)c1ccc(-c2nc(CN(Cc3ccc(OCC(=O)O)cc3)C(=O)CCc3ccccc3)cs2)cc1 [(4-{[[(2-{4-[(octylamino)carbonyl]phenyl}-1,3-thiazol-4-yl)methyl](3-phenylpropanoyl)amino]methyl}phenoxy)acetic acid], which IC50 [1] is on record?
Its IC50 is less than 1000 nM.

Which IC50 [1] does the source give for CCCCCCN(Cc1ccc(C#Cc2ccc(CCCC)cc2)cc1)C(=O)c1ccc(O)c(C(=O)O)c1 [5-{[{4-[(4-butylphenyl)ethynyl]benzyl}(hexyl)amino]carbonyl}-2-hydroxybenzoic acid] here?
Its IC50 is less than 1000 nM.

What about the EC50 (THP-1 cells) of the same compound?
Its EC50 is 1000 to 15000 nM.

For CCCCCCN(Cc1ccc(C#Cc2ccc(CCCC)cc2)cc1)c1ccc(O)c(C(=O)O)c1 [5-[{4-[(4-butylphenyl)ethynyl]benzyl}(hexyl)amino]-2-hydroxybenzoic acid], which IC50 [1] is on record?
The IC50 was less than 1000 nM.

What about the “colon reduction, estimated by the Weight/Length ratio” value (Balb/c mice; [2]) of the same compound?
The value was −22%.

What about the “colon reduction, estimated by the Weight/Length ratio” value (Balb/c mice; [3]) of the same compound?
The value was −28%.

What about the splenomegaly reduced (Balb/c mice; [3]) of the same compound?
The splenomegaly reduced was −31%.

And the “colon reduction, estimated by the Weight/Length ratio” value (Balb/c mice; [4])?
Its value is −35%.

What about the splenomegaly reduced (Balb/c mice; [4]) of the same compound?
The splenomegaly reduced was −65%.

What about the body weight loss (Balb/c mice; 10, 30 & 100 mg/kg) of the same compound?
The body weight loss was “prevented”.

And the EC50 (THP-1 cells)?
The EC50 was 1000 to 15000 nM.

Which “colon reduction, estimated by the Weight/Length ratio” value (Balb/c mice; [2]) does the source give for CCCCCCN(Cc1ccccc1C#Cc1ccc(CCCC)cc1)C(=O)c1ccc(O)c(C(=O)O)c1 [5-{[{2-[(4-butylphenyl)ethynyl]benzyl}(hexyl)amino]carbonyl}-2-hydroxybenzoic acid] here?
Its value is −47%.

What about the splenomegaly reduced (Balb/c mice; [2]) of the same compound?
Its splenomegaly reduced is −25%.

And the “colon reduction, estimated by the Weight/Length ratio” value (Balb/c mice; [3])?
Its value is −50%.

What about the splenomegaly reduced (Balb/c mice; [3]) of the same compound?
The splenomegaly reduced was −45%.

And the body weight loss (Balb/c mice; 10 & 30 mg/kg)?
The body weight loss was “prevented”.

Which IC50 [1] does the source give for N#Cc1ccc(C(=O)Nc2ccc(C(=O)N/N=C3\C(=O)Nc4ccc(I)cc43)cc2)cc1 [4-cyano-N-(4-{[(2Z)-2-(5-iodo-2-oxo-1,2-dihydro-3H-indol-3-ylidene)hydrazino]carbonyl}phenyl)benzamide] here?
The IC50 was less than 1000 nM.
